Experimental findings from paper PMC10049026, “In Silico Binding of 2-Aminocyclobutanones to SARS-CoV-2 Nsp13 Helicase and Demonstration of Antiviral Activity” (International Journal of Molecular Sciences, 2023) are described below.

Where two headings read alike, the source gives them in different places.

Test [1] has as its system Delta Variant hCoV-19/USA/MD-HP05285/2021 (Lineage B.1.617.2). The test can be described thus: microbe, parasite or virus in culture. The test is classed as cell-based, SARS-CoV-2. Conditions: for IC50: Severe acute respiratory syndrome coronavirus 2.
Test [2] relates to Omicron Variant hCoV-19/USA/MD-HP20874/2021 (Lineage B.1.1.529). The experiment in a line: microbe, parasite or virus in culture. Type of test: cell-based, SARS-CoV-2. Conditions: Severe acute respiratory syndrome coronavirus 2.

Consider `Cc1ccc(S(=O)(=O)N[C@@H](Cc2c[nH]c3ccccc23)C(=O)NC2CCC2=O)cc1` (stereo partly drawn) [Compound 4, (2S)-3-(1H-Indol-3-yl)-2-((4-methylphenyl)sulfonamido)-N-(2-oxocyclobutyl)propanamide], for which the “difference in IC50, variants vs wild-type” value in test [1] was 10 to 20 fold. The IC50 in test [1] (read-out: IC50, Delta VOC (Figure 5)) is 943 ± 526 nM; in test [1] (read-out: IC50 Values For inhibition of SARS-CoV-2 Mediated Cell Death, Delta) it was 220 nM; in test [2] (read-out: IC50, Omicron VOC (Figure 5)) it was 2590 ± 1280 nM; in test [2] (read-out: IC50 Values For inhibition of SARS-CoV-2 Mediated Cell Death, Omicron), 1580 nM.
